According to patent EP0341318A1, “NOVEL PLATINUM (II) COMPLEX, PROCESS FOR PREPARING THE SAME, AND THERAPEUTIC AGENT FOR MALIGNANT TUMOR” (TORAY INDUSTRIES, INC., priority 1987, dated 1989):
Values joined by “and” are separate entries in the source; they are usually repeats but may differ in a detail not shown here. Equal values may be shown once.

Key:
L1210 murine leukemia = assay: Antitumor activity against L1210 murine leukemia in mice; type: in vivo, CDF1 mice; settings: for Survival days (mean±SD): administered on 1st, 5th and 9th days after tumor inoculation, CDF1 mice, 10^5 L1210 cells i.p.; for T/C (%) / Survival rate: days 1, 5, 9; for T/C (%): L1210 in CDF1 mice; for Survival rate: Number of 30 days survival mice / group
Protocol: L1210 murine leukemia cells which were subcultured in DBA/2 mouse were inoculated intraperitoneally into CDF1 mice at 10^5 cells/mouse. Each experimental group was composed of 6-10 mice (male, 6-weeks old). Each test compound was administered three times, i.e., on the lst, 5th and 9th days after tumor inoculation. CBDCA and CDDP were used as control drugs in this experiment. Each compound was dissolved or suspended in 0.05% Tween 80 solution and administered in mice. Antitumor activity against L1210 leukemia was determined by T/C value calculated by the following equation and by the number of 30 days survival mice. [formula]
The antitumor activities of the compounds Nos. 3 to 5 of this invention were determined in the same way as in Example 6.

Slc:ICR mice = assay: Acute toxicity test on mice; type: in vivo; settings: intraperitoneal injection, Slc:ICR mice (male, 5 weeks old), mortality on the 14th day
Protocol: Each test compound was intraperitoneally injected into Slc:ICR mice (male, 5 weeks old). Each compound was formulated into a solution or suspension in a 0.05% Tween 80 solution. The LD50 value was calculated from mortality found on the 14th day after said injection.

2-(2-(2-Methoxyethoxy)ethoxy)ethyl 2,2-dimethyl-6,6,7,7,8,8,8-heptafluoro-3,5-dioxooctanoate- hydroxo(trans-l-1,2-diamino-cyclohexane)platinum(II) [Compound No. 4]
Survival days (mean±SD) (L1210 murine leukemia; Dose 1 mg/kg): 10.7 ± 2.7 days
T/C (%) (L1210 murine leukemia; Dose 1 mg/kg): 127%
Survival days (mean±SD) (L1210 murine leukemia; Dose 10 mg/kg): 20.8 ± 7.8 days
T/C (%) (L1210 murine leukemia; Dose 10 mg/kg): 248%
Survival days (mean±SD) (L1210 murine leukemia; Dose 25 mg/kg): 23.7 ± 5.9 days
T/C (%) (L1210 murine leukemia; Dose 25 mg/kg): 282%
Survival days (mean±SD) (L1210 murine leukemia; Dose 50 mg/kg): 11.5 ± 9.5 days
T/C (%) (L1210 murine leukemia; Dose 50 mg/kg): 137%
Survival days (mean±SD) (L1210 murine leukemia; Dose 100 mg/kg): 2.0 ± 0.0 days
T/C (%) (L1210 murine leukemia; Dose 100 mg/kg): 24%
Survival days (mean±SD) (L1210 murine leukemia; Dose 200 mg/kg): 2.0 ± 0.0 days
T/C (%) (L1210 murine leukemia; Dose 200 mg/kg): 24%
Survival rate (L1210 murine leukemia; dose 1 mg/kg): 0/6
Survival rate (L1210 murine leukemia; dose 10 mg/kg): 2/6
Survival rate (L1210 murine leukemia; dose 25 mg/kg): 2/6
Survival rate (L1210 murine leukemia; dose 50 mg/kg): 1/6
Survival rate (L1210 murine leukemia; dose 100 mg/kg): 0/6
Survival rate (L1210 murine leukemia; dose 200 mg/kg): 0/6

3-Heptafluorobutyryl-D-camphor-hydroxo(trans-l-1,2-diaminocyclohexane)platinum(II) [Compound No. 5]
Survival days (mean±SD) (L1210 murine leukemia; Dose 1 mg/kg): 9.0 ± 0.6 days
T/C (%) (L1210 murine leukemia; Dose 1 mg/kg): 111%
Survival days (mean±SD) (L1210 murine leukemia; Dose 10 mg/kg): 14.7 ± 2.3 days
T/C (%) (L1210 murine leukemia; Dose 10 mg/kg): 181%
Survival days (mean±SD) (L1210 murine leukemia; Dose 25 mg/kg): 19.8 ± 6.1 days
T/C (%) (L1210 murine leukemia; Dose 25 mg/kg): 244%
Survival days (mean±SD) (L1210 murine leukemia; Dose 50 mg/kg): 15.3 ± 7.1 days
T/C (%) (L1210 murine leukemia; Dose 50 mg/kg): 189%
Survival days (mean±SD) (L1210 murine leukemia; Dose 100 mg/kg): 4.2 ± 1.0 days
T/C (%) (L1210 murine leukemia; Dose 100 mg/kg): 52%
Survival days (mean±SD) (L1210 murine leukemia; Dose 200 mg/kg): 2.0 ± 0.0 days
T/C (%) (L1210 murine leukemia; Dose 200 mg/kg): 25%
Survival rate (L1210 murine leukemia; dose 1 mg/kg): 0/6
Survival rate (L1210 murine leukemia; dose 10 mg/kg): 0/6
Survival rate (L1210 murine leukemia; dose 25 mg/kg): 1/6
Survival rate (L1210 murine leukemia; dose 50 mg/kg): 0/6
Survival rate (L1210 murine leukemia; dose 100 mg/kg): 0/6
Survival rate (L1210 murine leukemia; dose 200 mg/kg): 0/6
LD50 (Slc:ICR mice): 47 mg/kg

N.N.[Cl][Pt][Cl] [CDDP, cis-diamminedichloroplatinum(II), reference compound]
Survival days (mean±SD) (L1210 murine leukemia; Dose 2.5 mg/kg, 2.5 mg/kg): 14.7 ± 2.7 days and 12.0 ± 3.0 days and 13.2 ± 2.9 days
T/C (%) (L1210 murine leukemia; Dose 2.5 mg/kg): 181% and 143% and 163%
Survival days (mean±SD) (L1210 murine leukemia; Dose 5.0 mg/kg, 5 mg/kg): 18.8 ± 4.3 days and 14.3 ± 2.9 days and 13.7 ± 1.5 days and 16.0 ± 2.8 days
T/C (%) (L1210 murine leukemia; Dose 5.0 mg/kg): 232% and 170% and 163% and 198%
Survival days (mean±SD) (L1210 murine leukemia; Dose 7.5 mg/kg, 7.5 mg/kg): 18.7 ± 3.1 days and 15.5 ± 2.1 days and 14.2 ± 2.4 days
T/C (%) (L1210 murine leukemia; Dose 7.5 mg/kg): 231% and 185% and 175%
Survival rate (L1210 murine leukemia; dose 2.5 mg/kg): 0/6
Survival rate (L1210 murine leukemia; dose 5.0 mg/kg): 0/6
Survival rate (L1210 murine leukemia; dose 7.5 mg/kg): 0/6

CC(C)(C)C(=O)C=C([O-])C(F)(F)C(F)(F)C(F)(F)F.N[C@@H]1CCCC[C@H]1N.[OH-].[Pt+2] [Compound No. 1, 2,2-Dimethyl-6,6,7,7,8,8,8-heptafluoro-3,5-octanedione-hydroxo(trans-I-1,2-diaminocyclohexane)platinum(II)]
Survival days (mean±SD) (L1210 murine leukemia; Dose 1 mg/kg): 10.5 ± 1.2 days
T/C (%) (L1210 murine leukemia; Dose 1 mg/kg): 130%
Survival days (mean±SD) (L1210 murine leukemia; Dose 10 mg/kg): 29.5 ± 1.2 days
T/C (%) (L1210 murine leukemia; Dose 10 mg/kg): 364%
T/C (%) (L1210 murine leukemia; Dose 10 mg/kg, listed as compound No. 1, 10 mg/kg): greater than 360%
Survival days (mean±SD) (L1210 murine leukemia; Dose 25 mg/kg): 29.7 ± 0.5 days
T/C (%) (L1210 murine leukemia; Dose 25 mg/kg): 367%
T/C (%) (L1210 murine leukemia; Dose 25 mg/kg, listed as compound No. 1, 25 mg/kg): greater than 360%
Survival days (mean±SD) (L1210 murine leukemia; Dose 50 mg/kg): 24.0 ± 10.3 days
T/C (%) (L1210 murine leukemia; Dose 50 mg/kg): 296%
Survival days (mean±SD) (L1210 murine leukemia; Dose 100 mg/kg): 5.2 ± 1.9 days
T/C (%) (L1210 murine leukemia; Dose 100 mg/kg): 64%
Survival days (mean±SD) (L1210 murine leukemia; Dose 200 mg/kg): 1.7 ± 0.5 days
T/C (%) (L1210 murine leukemia; Dose 200 mg/kg): 21%
Survival rate (L1210 murine leukemia; dose 1 mg/kg): 0/6
Survival rate (L1210 murine leukemia; dose 10 mg/kg): 4/6
Survival rate (L1210 murine leukemia; dose 25 mg/kg): 4/6
Survival rate (L1210 murine leukemia; dose 50 mg/kg): 4/6
Survival rate (L1210 murine leukemia; dose 100 mg/kg): 0/6
Survival rate (L1210 murine leukemia; dose 200 mg/kg): 0/6
antitumor activity (L1210 murine leukemia; comparison in words with control drugs, L1210 in mice): higher than CDDP and CBDCA
LD50 (Slc:ICR mice): 35 mg/kg

N[C@@H]1CCCC[C@H]1N.O=C(O)CC(=O)C=C([O-])C(F)(F)C(F)(F)C(F)(F)F.[OH-].[Pt+2] [Compound No. 3, 6,6,7,7,8,8,8-Heptafluoro-3,5-dioxooctanoic acid hydroxo-(trans-l-1,2-diaminocyclohexane)platinum(II)]
Survival days (mean±SD) (L1210 murine leukemia; Dose 1 mg/kg): 9.7 ± 1.4 days
T/C (%) (L1210 murine leukemia; Dose 1 mg/kg): 115%
Survival days (mean±SD) (L1210 murine leukemia; Dose 10 mg/kg): 9.7 ± 1.4 days
T/C (%) (L1210 murine leukemia; Dose 10 mg/kg): 115%
Survival days (mean±SD) (L1210 murine leukemia; Dose 25 mg/kg): 11.0 ± 0.9 days
T/C (%) (L1210 murine leukemia; Dose 25 mg/kg): 131%
Survival days (mean±SD) (L1210 murine leukemia; Dose 50 mg/kg): 11.8 ± 0.8 days
T/C (%) (L1210 murine leukemia; Dose 50 mg/kg): 140%
Survival days (mean±SD) (L1210 murine leukemia; Dose 100 mg/kg): 14.0 ± 2.7 days
T/C (%) (L1210 murine leukemia; Dose 100 mg/kg): 167%
Survival days (mean±SD) (L1210 murine leukemia; Dose 200 mg/kg): 11.2 ± 3.7 days
T/C (%) (L1210 murine leukemia; Dose 200 mg/kg): 133%
Survival rate (L1210 murine leukemia; dose 1 mg/kg): 0/6
Survival rate (L1210 murine leukemia; dose 10 mg/kg): 0/6
Survival rate (L1210 murine leukemia; dose 25 mg/kg): 0/6
Survival rate (L1210 murine leukemia; dose 50 mg/kg): 0/6
Survival rate (L1210 murine leukemia; dose 100 mg/kg): 0/6
Survival rate (L1210 murine leukemia; dose 200 mg/kg): 0/6
LD50 (Slc:ICR mice): >200 mg/kg

cis-diammine-1,1-cyclobutanedicarboxylate platinum(II) [CBDCA, reference compound]
Survival days (mean±SD) (L1210 murine leukemia; Dose 1 mg/kg): 8.3 ± 0.5 days
T/C (%) (L1210 murine leukemia; Dose 1 mg/kg): 98%
Survival days (mean±SD) (L1210 murine leukemia; Dose 10 mg/kg): 9.3 ± 0.5 days
T/C (%) (L1210 murine leukemia; Dose 10 mg/kg): 109%
Survival days (mean±SD) (L1210 murine leukemia; Dose 25 mg/kg): 10.1 ± 1.3 days
T/C (%) (L1210 murine leukemia; Dose 25 mg/kg): 119%
Survival days (mean±SD) (L1210 murine leukemia; Dose 50 mg/kg): 13.1 ± 2.3 days
T/C (%) (L1210 murine leukemia; Dose 50 mg/kg): 156%
Survival days (mean±SD) (L1210 murine leukemia; Dose 100 mg/kg): 14.1 ± 3.7 days
T/C (%) (L1210 murine leukemia; Dose 100 mg/kg): 166%
Survival days (mean±SD) (L1210 murine leukemia; Dose 200 mg/kg): 9.6 ± 0.7 days
T/C (%) (L1210 murine leukemia; Dose 200 mg/kg): 113%
Survival rate (L1210 murine leukemia; dose 1 mg/kg): 0/10
Survival rate (L1210 murine leukemia; dose 10 mg/kg): 0/10
Survival rate (L1210 murine leukemia; dose 25 mg/kg): 0/10
Survival rate (L1210 murine leukemia; dose 50 mg/kg): 0/10
Survival rate (L1210 murine leukemia; dose 100 mg/kg): 0/10
Survival rate (L1210 murine leukemia; dose 200 mg/kg): 0/10
